According to article PMC9997437, “Initiation and modulation of Tau protein phase separation by the drug suramin” (Scientific Reports, 2023):

Molecular target: T1, Tau (Homo sapiens, UniProt P10636)
T1 construct: gene MAPT; full-length wildtype Tau (hTau40; 441 aa; 2N4R isoform, UniprotKB P10636-8)
Test: microscale thermophoresis (MST) with fluorescently labelled Tau; supported by trDLS, microscopy and TEM of Tau:suramin condensates
Format: binding

T1 sequence (P10636 2-441 isoform P10636-8): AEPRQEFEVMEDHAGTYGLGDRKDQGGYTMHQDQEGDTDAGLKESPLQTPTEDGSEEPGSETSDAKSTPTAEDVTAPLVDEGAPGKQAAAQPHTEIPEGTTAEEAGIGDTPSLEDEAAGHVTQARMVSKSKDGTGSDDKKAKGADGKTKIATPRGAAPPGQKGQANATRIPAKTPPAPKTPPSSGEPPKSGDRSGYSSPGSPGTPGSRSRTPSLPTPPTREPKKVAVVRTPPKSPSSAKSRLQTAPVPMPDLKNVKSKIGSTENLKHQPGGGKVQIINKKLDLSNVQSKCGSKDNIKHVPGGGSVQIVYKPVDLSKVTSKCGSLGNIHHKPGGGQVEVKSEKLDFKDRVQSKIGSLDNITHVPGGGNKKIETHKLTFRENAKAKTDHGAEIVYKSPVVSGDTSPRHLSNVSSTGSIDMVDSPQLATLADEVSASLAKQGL

Kd: ~17 µM
Compound: Cc1ccc(C(=O)Nc2ccc(S(=O)(=O)O)c3cc(S(=O)(=O)O)cc(S(=O)(=O)O)c23)cc1NC(=O)c1cccc(NC(=O)Nc2cccc(C(=O)Nc3cc(C(=O)Nc4ccc(S(=O)(=O)O)c5cc(S(=O)(=O)O)cc(S(=O)(=O)O)c45)ccc3C)c2)c1 [suramin]
